Reference: PMC6021502, “Cannabigerol Action at Cannabinoid CB1 and CB2 Receptors and at CB1–CB2 Heteroreceptor Complexes” (Frontiers in Pharmacology, 2018)
pEC50: −log10 of the molar value.

Legend:
[1] = system: PPARγ transcriptional activity; parameters: method as in Granja et al., 2012; Nadal et al., 2017; conditions: high concentrations, 10–25 μM range; ref Granja et al., 2012; Nadal et al., 2017; cited from earlier work
TRPV1 = system: TRPV1; parameters: method as in De Petrocellis et al., 2011; conditions: ref De Petrocellis et al., 2011; read-out: EC50, agonist of TRPV1; cited from earlier work
CB1R = system: T1, CB1R; experiment: Overall signalling profile (cAMP, MAPK, β-arrestin, DMR) in HEK-293T cells; format: cell-based, human; conditions: HEK-293T cells expressing CB1R
T1 construct: expressed in transfected cells; host or cells: HEK-293T, transient transfection (PEI)
Protocol: (§1) HEK-293T cells were grown in DMEM medium (Gibco, Paisley, Scotland, United Kingdom) supplemented with 2 mM L-glutamine, 100 U/mL penicillin/streptomycin, MEM Non-Essential Amino Acids Solution (1/100) and 5% (v/v) heat inactivated Foetal Bovine Serum (FBS) (Invitrogen, Paisley, Scotland, United Kingdom). […] Cells were transiently transfected with the PEI (Polyethylenimine, Sigma, St. Louis, MO, United States) method as previously described ([Medrano et al., 2017]; [Navarro et al., 2018b]) and used for functional assays 48 h later (unless otherwise stated).
(§2) Signaling experiments have been performed as previously described ([Navarro et al., 2010], [2016], [2018b]; [Hinz et al., 2018]). […] Readings were performed after 15 min incubation at 25°C. […] Fluorescence at 665 nm was analyzed in a PHERAstar Flagship microplate reader equipped with an HTRF optical module (BMG Lab Technologies, Offenburg, Germany).
(§3) To determine ERK1/2 phosphorylation, 50,000 HEK-293T cells/well were plated in transparent Deltalab 96-well microplates and kept at the incubator for 24 h. […] 10 μL of each supernatant were placed in white ProxiPlate 384-well microplates and ERK 1/2 phosphorylation was determined using AlphaScreen®SureFire® kit (Perkin Elmer) following the instructions of the supplier and using an EnSpire® Multimode Plate Reader (PerkinElmer, Waltham, MA, United States). […]

CB2R = system: T2, CB2R; experiment: as above; format: cell-based, human; conditions: HEK-293T cells expressing CB2R
T2 construct: expressed in transfected cells; host or cells: HEK-293T, transient transfection (PEI)
Protocol: as §1, §2, §3

[2] = system: T3, CB1R and CB2R (CB1–CB2 heteroreceptor complexes); experiment: ERK1/2 phosphorylation in HEK-293T cells co-expressing both receptors; format: cell-based, human
T3 construct: expressed in transfected cells; host or cells: HEK-293T, transient co-transfection (PEI)
Protocol: as §1
To determine ERK1/2 phosphorylation, 50,000 HEK-293T cells/well were plated in transparent Deltalab 96-well microplates and kept at the incubator for 24 h. 2 to 4 h before the experiment, the medium was substituted by serum-starved DMEM medium. Then, cells were pre-treated at 25°C for 10 min with vehicle or CBG in serum-starved DMEM medium and stimulated for an additional 7 min with the specific agonists. Cells were then washed twice with cold PBS before addition of lysis buffer (20 min treatment). 10 μL of each supernatant were placed in white ProxiPlate 384-well microplates and ERK 1/2 phosphorylation was determined using AlphaScreen®SureFire® kit (Perkin Elmer) following the instructions of the supplier and using an EnSpire® Multimode Plate Reader (PerkinElmer, Waltham, MA, United States).

TRPV2 = system: TRPV2; parameters: method as in De Petrocellis et al., 2011; conditions: ref De Petrocellis et al., 2011; read-out: EC50, agonist of TRPV2; cited from earlier work
macrophages = system: macrophages; parameters: method as in Borrelli et al., 2013; conditions: ref Borrelli et al., 2013; cited from earlier work

SMILES: CCCCCc1cc(O)c(C/C=C(\C)CCC=C(C)C)c(O)c1 [CBG, cannabigerol]
- Effect on PPARγ transcriptional activity [1]: may enhance the PPARγ transcriptional activity
- pEC50 (TRPV1): 5.89
- Pharmacological profile at CB1R (CB1R): poor agonist of CB1R
- Pharmacological profile at CB2R (CB2R): partial agonist of the CB2R
- Effect on agonist actions on ERK1/2 phosphorylation ([2]; 100 nM CBG pretreatment, cells co-expressing CB1R and CB2R): negligible except for the negative modulation of the ACEA effect on ERK1/2 phosphorylation
- Effect on ERK1/2 phosphorylation ([2]; CBG alone, dose-effect, cells expressing CB1R and CB2R): negative cross-talk was still evident
- pEC50 (TRPV2): 5.77
- Nitrite release from macrophages after LPS stimulation (macrophages): reduce
